Patent US20060040312A1 (priority 1999, published 2006)

What was measured:
[1] = test system: primary cultures of cortex
[2] = test system: cardiac myocytes; format: cell-based, rat
[3] = test system: histamine-contracted, isolated Guinea pig tracheal segments
[4] = test system: primary cultures of cortex; format: cell-based, rat
[5] = test system: cortical cells
[6] = test system: primary cortical cultures
[7] = molecular target: Shaker H4 potassium channel (Drosophila melanogaster, UniProt P08510); settings: cited from earlier work
Sequence of Shaker H4 potassium channel (P08510 whole entry): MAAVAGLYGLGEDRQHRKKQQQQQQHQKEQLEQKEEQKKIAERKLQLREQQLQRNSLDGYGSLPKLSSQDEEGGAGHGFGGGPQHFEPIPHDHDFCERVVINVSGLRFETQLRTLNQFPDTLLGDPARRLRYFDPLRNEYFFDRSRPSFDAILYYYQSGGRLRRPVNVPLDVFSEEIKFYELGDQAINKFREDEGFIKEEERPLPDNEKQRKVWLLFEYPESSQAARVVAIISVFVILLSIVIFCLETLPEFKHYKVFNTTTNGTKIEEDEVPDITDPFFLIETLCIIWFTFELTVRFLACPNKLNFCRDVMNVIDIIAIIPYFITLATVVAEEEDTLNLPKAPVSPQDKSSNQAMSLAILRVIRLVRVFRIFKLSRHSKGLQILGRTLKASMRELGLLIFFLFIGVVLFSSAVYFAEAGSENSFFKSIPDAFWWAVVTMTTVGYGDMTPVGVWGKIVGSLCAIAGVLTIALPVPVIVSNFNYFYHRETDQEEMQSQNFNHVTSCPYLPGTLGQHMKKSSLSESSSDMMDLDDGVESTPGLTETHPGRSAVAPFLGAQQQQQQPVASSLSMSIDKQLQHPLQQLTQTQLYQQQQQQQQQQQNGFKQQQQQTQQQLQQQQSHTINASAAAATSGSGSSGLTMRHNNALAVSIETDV

[8] = molecular target: F425G Shaker mutation (Drosophila melanogaster, UniProt P08510, F425G); settings: cited from earlier work
Sequence of F425G Shaker mutation (P08510 whole entry F425G): as the sequence (P08510 whole entry) above, with F425G counted along it

Nc1ccncc1 [4-AP, 4-aminopyridine]
effect of K+ channel antagonist on the hyperpolarization seen with 100 nM κ-PVIIA [1]: without any detectable effect

COc1ccc(Cl)cc1C(=O)NCCc1ccc(S(=O)(=O)NC(=O)NC2CCCCC2)cc1 [Glibenclamide]
sensitivity of κ-PVIIA-evoked currents to KATP antagonist [2]: sensitive | effect of KATP channel antagonist on the κ-PVIIA response [3]: reduce effects of κ-PVIIA | effect of KATP antagonist on the κ-PVIIA induced hyperpolarization [1]: significant reductions

CCCCNC(=O)NS(=O)(=O)c1ccc(C)cc1 [Tolbutamide]
sensitivity of κ-PVIIA-evoked currents to KATP antagonist [4]: sensitive | effect of KATP channel antagonist on the κ-PVIIA response [3]: reduce effects of κ-PVIIA | effect of KATP antagonist on the κ-PVIIA induced hyperpolarization [1]: significant reductions | inhibition of the κ-PVIIA (100 nM) response [1]: inhibition | effect of KATP antagonist on κ-PVIIA protection against glutamate cytotoxicity [5]: blocked

Iberiotoxin (QFTDVDCSVSKECWSVCKDLFGVDRGKCMGKKCRCYQ; UniProt P24663 1-37, looked up) [IBTX]
effect of K+ channel antagonist on the hyperpolarization seen with 100 nM κ-PVIIA [1]: without any detectable effect

Triton [reference compound]
increase in fluorescence (Enzchek protease-sensitive dye) [6]: ~14%

charybdotoxin [reference compound]
block / inhibition of the Shaker channel [7]: inhibit | effect of F425G Shaker mutation on toxin affinity / sensitivity [8]: increases charybdotoxin affinity by three orders of magnitude
